Data taken from article PMC6624297 (Cell Death & Disease, 2019).

Key:
HepG2 cells = assay: MTT assay HepG2; assay type: cell-based; settings: Homo sapiens, 24h of treatment, mean ± SD
Method: (§1) Details are given in Supplementary Materials and Methods. Using probability unit and weighted regression method to calculate the IC50 value of compounds.
(§2) Total cells in the logarithmic growth phase were collected, digested using 0.25% pancreatic enzymes, and then diluted into single-cell suspensions using phosphate-buffered solution (PBS). These cells were seeded into 96-well plates at 4× 10^3-5× 10^3 cells per well (100 µL per well) and then A549, H460, OVCAR-3, SGC7901, MDA-MB-231, HCT116 and HepG2 were cultured at 37°Cin an incubator containing 5% CO2. After cell complete attachment, 100 µL of different concentrations of compounds (0.625 μM, 1.25 μM, 2.5μM, 5 μM, 10 μM) were added to the cells after the nutrient solution in each well was discarded, while no compound except 0.1% DMSO was added to cells in the control group; at the same time, each concentration was set up to 5 wells. In addition, 5 wells in each 96-well plate only received 100 µL of nutrient solution as a blank control. The plates were taken out after the cells were incubated with compounds for 24 h, and 20 µL of MTT solution (5 mg/mL) (Wuhan Boster Biotechnology Limited Company, Wuhan, China; item No. AR1156) was added into all the wells. After another time of incubation for 4 h at 37 °C, the nutrient solution in each well was discarded slowly, and 150 µL of DMSO was added to each well. The plates were shaken on a shaking table for 20 min. When the crystals were fully dissolved, the blank wells were used to zero the plate reader. The optical density (OD) of each well was detected at 490 nm. The IC50 value was determined as the concentration of the inhibitor that caused 50% inhibition. Using probability unit and weighted regression method to calculate the IC50 value of compounds.

A549 cells = assay: MTT assay A549; assay type: cell-based, human; settings: Homo sapiens, A549, 24h of treatment, mean ± SD
Method: as §1, §2

SGC7901 cells = assay: MTT assay SGC7901; assay type: cell-based; settings: Homo sapiens, SGC-7901, 24h of treatment, mean ± SD
Method: as §1, §2

OVCAR-3 cells = assay: MTT assay OVCAR-3; assay type: cell-based; settings: Homo sapiens, 24h of treatment, mean ± SD
Method: as §1, §2

human TS (hTS) = molecular target: T1, human TS (hTS) (Homo sapiens, UniProt P04818); assay: Thymidylate synthase (TS) spectrophotometric assay; assay type: biochemical; settings: averages from triplicate assays
T1 construct: purchased ProSpec-Tany
T1 sequence (P04818 whole entry): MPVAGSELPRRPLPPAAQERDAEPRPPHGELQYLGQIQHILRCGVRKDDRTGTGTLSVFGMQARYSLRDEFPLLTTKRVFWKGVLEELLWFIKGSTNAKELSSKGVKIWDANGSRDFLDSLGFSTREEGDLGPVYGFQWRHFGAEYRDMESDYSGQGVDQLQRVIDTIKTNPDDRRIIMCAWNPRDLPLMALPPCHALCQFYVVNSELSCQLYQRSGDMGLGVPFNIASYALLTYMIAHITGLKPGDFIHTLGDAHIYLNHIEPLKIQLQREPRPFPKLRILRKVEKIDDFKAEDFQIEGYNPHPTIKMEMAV
Method: Recombinant human thymidylate synthase purchased from ProSpec-Tany Company. TS was assayed spectrophotometrically at 30 °C and pH 7.4 in a mixture containing 0.1 M 2-mercaptoethanol, 0.0003 M (6R,S)-tetrahydrofolate, 0.012 M formaldehyde, 0.02 M MgCl2, 0.001 M dUMP, 0.04 M Tris–HCl, 30 nM hTS, and 0.00075 M NaEDTA. […] The reaction was initiated by the addition of an amount of enzyme yielding a change in absorbance at 340 nm of 0.016/min in the absence of inhibitor.

HCT-116 cells = assay: MTT assay HCT-116; assay type: cell-based; settings: Homo sapiens, 24h of treatment, mean ± SD
Method: as §1, §2

MDA-MB-231 cells = assay: MTT assay MDA-MB-231; assay type: cell-based; settings: Homo sapiens, 24h of treatment, mean ± SD
Method: as §1, §2

BRaf kinase = BRaf kinase (Homo sapiens, UniProt P15056); assay: ADP-Glo kinase assay, BRaf; assay type: biochemical; settings: averages from triplicate assays
Sequence of BRaf kinase (P15056 whole entry): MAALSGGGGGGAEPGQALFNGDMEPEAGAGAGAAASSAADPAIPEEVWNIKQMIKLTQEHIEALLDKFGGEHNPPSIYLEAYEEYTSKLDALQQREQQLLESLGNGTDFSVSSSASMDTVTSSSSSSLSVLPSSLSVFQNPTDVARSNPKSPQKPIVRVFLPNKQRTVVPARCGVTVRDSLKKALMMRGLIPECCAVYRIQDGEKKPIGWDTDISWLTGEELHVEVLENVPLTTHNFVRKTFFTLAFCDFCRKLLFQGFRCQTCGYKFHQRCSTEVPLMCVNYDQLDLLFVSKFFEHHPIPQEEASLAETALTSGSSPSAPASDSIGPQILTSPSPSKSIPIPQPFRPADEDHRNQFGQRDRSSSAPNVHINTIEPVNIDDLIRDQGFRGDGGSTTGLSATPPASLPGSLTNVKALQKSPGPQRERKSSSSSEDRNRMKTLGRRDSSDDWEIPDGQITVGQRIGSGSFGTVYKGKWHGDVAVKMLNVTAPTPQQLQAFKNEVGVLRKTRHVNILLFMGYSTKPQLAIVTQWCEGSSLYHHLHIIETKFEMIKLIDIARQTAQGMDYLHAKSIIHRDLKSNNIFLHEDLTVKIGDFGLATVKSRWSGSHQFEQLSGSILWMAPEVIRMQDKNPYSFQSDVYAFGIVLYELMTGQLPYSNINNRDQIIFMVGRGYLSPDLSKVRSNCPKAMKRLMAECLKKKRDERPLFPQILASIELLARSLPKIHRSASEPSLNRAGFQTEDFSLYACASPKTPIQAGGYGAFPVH
Method: (§3) The ADP-Glo™ kinase assay (Promega, Madison, WI) was used to screen target compounds for their inhibition effects for BRaf, EGFR kinase. The kinase assay was carried out in a 96-well plate, in a volume of 25 μL HEPES (pH 7.3) solvent containing 1.6 μg/mL EGF, and 20 ng of EGFR kinase, or 50 ng BRaf kinase, and 10 μM ATP (Promega, Madison, WI). […] Reactions in each well were started immediately by adding ATP and kept going for half an hour under 30 °C in a constant temperature incubator (Bluepard, Shanghai, China). After the plate cooled for 5 min at room temperature, 25 μl of ADP-Glo reagent was added into each well to stop the reaction and consume the remaining […] within 40 min. At the end, 50 μl of kinase detection reagent was added into the well and incubated for 1 h to produce a luminescence signal.

EGFR kinase = EGFR kinase (Homo sapiens, UniProt P00533); assay: ADP-Glo kinase assay, EGFR; assay type: biochemical; settings: averages from triplicate assays
Sequence of EGFR kinase (P00533 25-1210): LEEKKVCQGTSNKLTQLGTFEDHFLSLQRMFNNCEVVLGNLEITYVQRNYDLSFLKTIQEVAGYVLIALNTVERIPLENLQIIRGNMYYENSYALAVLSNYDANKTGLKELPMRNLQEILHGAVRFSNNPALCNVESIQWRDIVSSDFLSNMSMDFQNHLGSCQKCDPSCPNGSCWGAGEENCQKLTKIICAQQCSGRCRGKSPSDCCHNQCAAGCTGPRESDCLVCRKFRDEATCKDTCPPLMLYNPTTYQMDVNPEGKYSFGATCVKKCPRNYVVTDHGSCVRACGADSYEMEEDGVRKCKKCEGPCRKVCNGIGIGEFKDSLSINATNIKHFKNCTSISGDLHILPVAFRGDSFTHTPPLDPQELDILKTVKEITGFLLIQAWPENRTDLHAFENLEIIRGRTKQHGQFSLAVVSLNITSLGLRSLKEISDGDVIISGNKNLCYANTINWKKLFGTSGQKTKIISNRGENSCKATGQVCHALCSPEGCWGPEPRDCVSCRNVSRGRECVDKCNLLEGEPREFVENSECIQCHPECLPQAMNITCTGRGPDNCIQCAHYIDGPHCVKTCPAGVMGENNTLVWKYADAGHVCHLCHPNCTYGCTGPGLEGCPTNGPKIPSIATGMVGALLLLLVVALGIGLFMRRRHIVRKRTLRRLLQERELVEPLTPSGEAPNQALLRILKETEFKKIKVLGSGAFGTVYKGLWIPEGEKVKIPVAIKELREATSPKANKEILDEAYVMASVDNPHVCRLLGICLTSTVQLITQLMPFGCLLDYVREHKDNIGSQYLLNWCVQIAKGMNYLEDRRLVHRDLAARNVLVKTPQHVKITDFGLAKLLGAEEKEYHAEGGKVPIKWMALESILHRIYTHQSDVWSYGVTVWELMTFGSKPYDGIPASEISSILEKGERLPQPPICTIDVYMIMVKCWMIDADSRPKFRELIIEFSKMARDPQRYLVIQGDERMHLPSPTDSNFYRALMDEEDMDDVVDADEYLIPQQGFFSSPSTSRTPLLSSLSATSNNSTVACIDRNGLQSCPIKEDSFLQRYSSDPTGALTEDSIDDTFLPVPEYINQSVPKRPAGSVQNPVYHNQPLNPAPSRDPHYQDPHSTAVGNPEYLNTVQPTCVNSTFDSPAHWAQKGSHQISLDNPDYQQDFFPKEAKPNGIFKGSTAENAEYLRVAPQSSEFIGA
Method: as §3

O=C(Nc1cccc(NS(=O)(=O)c2c[nH]c(=O)[nH]c2=O)c1)Nc1ccccc1Cl [Compound L15d, N'-(2-chlorophenyl)-3-(2,4-dihydroxypyrimidine-5-sulfonamido)phenylurea]
IC50 (HepG2 cells): 4.97 ± 0.36 µM | melting point: 159 to 162 °C | IC50 (A549 cells): 1.87 ± 0.12 µM | IC50 (SGC7901 cells): 5.25 ± 0.81 µM | IC50 (OVCAR-3 cells): 6.3 ± 0.25 µM | IC50 (human TS (hTS)): 3.81 µM | IC50 (HCT-116 cells): 2.65 ± 0.33 µM | IC50 (MDA-MB-231 cells): 2.04 ± 0.29 µM | IC50 (BRaf kinase): 4.09 µM | IC50 (EGFR kinase): 7.65 µM

O=C(Nc1ccc(Cl)cc1)Nc1cccc(NS(=O)(=O)c2c[nH]c(=O)[nH]c2=O)c1 [Compound L15f, N'-(4-chlorophenyl)-3-(2,4-dihydroxypyrimidine-5-sulfonamido)phenylurea]
IC50 (HepG2 cells): 3.07 ± 0.29 µM | melting point: 169 to 171 °C | IC50 (A549 cells): 1.01 ± 0.11 µM | IC50 (SGC7901 cells): 4.28 ± 0.67 µM | IC50 (OVCAR-3 cells): 1.49 ± 0.28 µM | IC50 (human TS (hTS)): 1.55 µM | IC50 (HCT-116 cells): 7.61 ± 0.04 µM | IC50 (MDA-MB-231 cells): 3.2 ± 0.62 µM | IC50 (BRaf kinase): 2.68 µM | IC50 (EGFR kinase): 5.54 µM

Cc1cccc(NC(=O)Nc2ccc(NS(=O)(=O)c3c[nH]c(=O)[nH]c3=O)cc2)c1 [Compound L13h, N'-(3-methylphenyl)-4-(2,4-dihydroxypyrimidine-5-sulfonamido)phenylurea]
IC50 (HepG2 cells): 5.83 ± 0.18 µM | melting point: 179 to 182 °C | IC50 (A549 cells): 1.85 ± 0.13 µM | IC50 (SGC7901 cells): 6.35 ± 0.52 µM | IC50 (OVCAR-3 cells): 9.56 ± 0.94 µM | IC50 (human TS (hTS)): 4.57 µM | IC50 (HCT-116 cells): 5.46 ± 1.21 µM | IC50 (MDA-MB-231 cells): > 10 µM | IC50 (BRaf kinase): 3.53 µM | IC50 (EGFR kinase): 3.99 µM

Cc1ccc(NC(=O)Nc2ccccc2NS(=O)(=O)c2c[nH]c(=O)[nH]c2=O)cc1 [Compound L14i, N'-(4-methylphenyl)-2-(2,4-dihydroxypyrimidine-5-sulfonamido)phenylurea]
IC50 (HepG2 cells): 5.72 ± 0.21 µM | melting point: 165 to 169 °C | IC50 (A549 cells): 1.37 ± 0.45 µM | IC50 (SGC7901 cells): 5.13 ± 0.44 µM | IC50 (OVCAR-3 cells): > 10 µM | IC50 (human TS (hTS)): 6.98 µM | IC50 (HCT-116 cells): 5.62 ± 0.61 µM | IC50 (MDA-MB-231 cells): 7.3 ± 0.1 µM | IC50 (BRaf kinase): 5.45 µM | IC50 (EGFR kinase): > 10 µM

Cc1ccccc1NC(=O)Nc1cccc(NS(=O)(=O)c2c[nH]c(=O)[nH]c2=O)c1 [Compound L15g, N'-(2-methylphenyl)-3-(2,4-dihydroxypyrimidine-5-sulfonamido)phenyl urea]
IC50 (HepG2 cells): 7.66 ± 0.78 µM | melting point: 163 to 167 °C | IC50 (A549 cells): 8.75 ± 0.61 µM | IC50 (SGC7901 cells): 7.04 ± 0.87 µM | IC50 (OVCAR-3 cells): > 10 µM | IC50 (human TS (hTS)): > 10 µM | IC50 (HCT-116 cells): 6.41 ± 1.83 µM | IC50 (MDA-MB-231 cells): > 10 µM | IC50 (BRaf kinase): > 10 µM | IC50 (EGFR kinase): > 10 µM

Cc1ccccc1NC(=O)Nc1ccccc1NS(=O)(=O)c1c[nH]c(=O)[nH]c1=O [Compound L14g, N'-(2-methylphenyl)-2-(2,4-dihydroxypyrimidine-5-sulfonamido)phenyl urea]
IC50 (HepG2 cells): 5.59 ± 0.64 µM | melting point: 151 to 154 °C | IC50 (A549 cells): 2.09 ± 0.72 µM | IC50 (SGC7901 cells): 5.4 ± 0.09 µM | IC50 (OVCAR-3 cells): > 10 µM | IC50 (human TS (hTS)): 6.47 µM | IC50 (HCT-116 cells): 4.82 ± 0.19 µM | IC50 (MDA-MB-231 cells): > 10 µM | IC50 (BRaf kinase): 7.41 µM | IC50 (EGFR kinase): > 10 µM

O=C(Nc1ccc(NS(=O)(=O)c2c[nH]c(=O)[nH]c2=O)cc1)Nc1ccccc1Cl [Compound L13d, N'-(2-chlorophenyl)-4-(2,4-dihydroxypyrimidine-5-sulfonamido)phenylurea]
IC50 (HepG2 cells): 6.56 ± 0.15 µM | melting point: 167 to 169 °C | IC50 (A549 cells): 2.01 ± 0.14 µM | IC50 (SGC7901 cells): 5.3 ± 0.28 µM | IC50 (OVCAR-3 cells): 1.73 ± 0.44 µM | IC50 (human TS (hTS)): 2.36 µM | IC50 (HCT-116 cells): 4.13 ± 0.16 µM | IC50 (MDA-MB-231 cells): > 10 µM | IC50 (BRaf kinase): 2.39 µM | IC50 (EGFR kinase): 4.22 µM

Cc1ccc(NC(=O)Nc2cccc(NS(=O)(=O)c3c[nH]c(=O)[nH]c3=O)c2)cc1 [Compound L15i, N'-(4-methylphenyl)-3-(2,4-dihydroxypyrimidine-5-sulfonamido)phenyl urea]
IC50 (HepG2 cells): 6.96 ± 0.59 µM | melting point: 173 to 175 °C | IC50 (A549 cells): 4.18 ± 0.46 µM | IC50 (SGC7901 cells): 6.96 ± 1.53 µM | IC50 (OVCAR-3 cells): > 10 µM | IC50 (human TS (hTS)): 8.3 µM | IC50 (HCT-116 cells): 9.5 ± 1.6 µM | IC50 (MDA-MB-231 cells): 9.06 ± 1.13 µM | IC50 (BRaf kinase): 7.23 µM | IC50 (EGFR kinase): 8.67 µM

O=C(Nc1ccc(NS(=O)(=O)c2c[nH]c(=O)[nH]c2=O)cc1)Nc1cccc(Cl)c1 [Compound L13e, N'-(3-chlorophenyl)-4-(2,4-dihydroxypyrimidine-5-sulfonamido)phenylurea]
IC50 (HepG2 cells): 2.81 ± 0.16 µM | melting point: 169 to 171 °C | IC50 (A549 cells): 0.95 ± 0.05 µM | IC50 (SGC7901 cells): 3.38 ± 0.18 µM | IC50 (OVCAR-3 cells): 1.05 ± 0.42 µM | IC50 (human TS (hTS)): 4.55 µM | IC50 (HCT-116 cells): 2.46 ± 0.06 µM | IC50 (MDA-MB-231 cells): 2.48 ± 1.46 µM | IC50 (BRaf kinase): 3.64 µM | IC50 (EGFR kinase): 4.41 µM

Cc1ccccc1NC(=O)Nc1ccc(NS(=O)(=O)c2c[nH]c(=O)[nH]c2=O)cc1 [Compound L13g, N'-(2-methylphenyl)-4-(2,4-dihydroxypyrimidine-5-sulfonamido)phenyl urea]
IC50 (HepG2 cells): 9.16 ± 0.12 µM | melting point: 169 to 173 °C | IC50 (A549 cells): 4.68 ± 0.11 µM | IC50 (SGC7901 cells): 6.39 ± 0.19 µM | IC50 (OVCAR-3 cells): 2.68 ± 0.38 µM | IC50 (human TS (hTS)): 9.25 µM | IC50 (HCT-116 cells): 4.75 ± 0.07 µM | IC50 (MDA-MB-231 cells): > 10 µM | IC50 (BRaf kinase): > 10 µM | IC50 (EGFR kinase): > 10 µM

CNC(=O)c1cc(Oc2ccc(NC(=O)Nc3ccc(Cl)c(C(F)(F)F)c3)cc2)ccn1 [Sorafenib, reference compound]
IC50 (HepG2 cells): 8.21 ± 0.34 µM | IC50 (A549 cells): > 10 µM | IC50 (SGC7901 cells): > 10 µM | IC50 (OVCAR-3 cells): > 10 µM | IC50 (HCT-116 cells): > 10 µM | IC50 (MDA-MB-231 cells): > 10 µM

Cc1cccc(NC(=O)Nc2ccccc2NS(=O)(=O)c2c[nH]c(=O)[nH]c2=O)c1 [Compound L14h, N'-(3-methylphenyl)-2-(2,4-dihydroxypyrimidine-5-sulfonamido)phenylurea]
IC50 (HepG2 cells): > 10 µM | melting point: 155 to 158 °C | IC50 (A549 cells): 1.45 ± 0.06 µM | IC50 (SGC7901 cells): 3.3 ± 0.15 µM | IC50 (OVCAR-3 cells): 7.3 ± 0.68 µM | IC50 (human TS (hTS)): 3.52 µM | IC50 (HCT-116 cells): 5.39 ± 0.41 µM | IC50 (MDA-MB-231 cells): 7.16 ± 0.9 µM | IC50 (BRaf kinase): 3.61 µM | IC50 (EGFR kinase): 4.28 µM
